{"source": "paper PMC12952245", "about": "(Cancer, 2025)", "key": {"[1]": {"system": "ATM and H2AX phosphorylation in PBMCs", "assay": "PBMC DNA damage signaling, quasi-quantitative dual multiplexed immunoblot", "assay_type": "in vivo, human", "procedure": "Blood was processed and analysis performed as described.[11]–[13]"}, "[2]": {"system": "γH2AX, pS343-NBS1, and pS824-KAP1", "assay": "Tumor DNA damage signaling, multiplex immunofluorescence of paired biopsies", "assay_type": "in vivo, human", "details": "18–22 hours after end of irinotecan infusion (C1D-13), one colon cancer patient; 4% is the assay baseline", "text": "Paired tumor biopsies were collected from patients enrolled in the expansion cohort. […] The staining of FFPE tissue sections used the BOND RX autostainer (Leica Biosystems). For γH2AX and […]-NBS1 analysis, biotin-conjugated γH2AX (clone JBW301; EMD Millipore) and a custom-conjugated […]-NBS1-DIG (clone EP178; Abcam) antibodies were detected with the use of streptavidin labeled with Alexa Fluor 488 and Alexa Fluor 647 custom-conjugated IgG Fraction Monoclonal Mouse Anti-Digoxin antibody, respectively. For […]-KAP1 analysis, anti-[…]-KAP1 antibody (clone EPR5248; Abcam) custom conjugated to dinitrophenol (Molecular Probes, Inc) was detected using Alexa Fluor 488 conjugated anti-dinitrophenyl KLH rabbit polyclonal antibody. In addition, β-catenin antibody custom conjugated to Alexa Fluor 546 was used to define tumor areas in all biomarker analyses. For γH2AX and […]-NBS1 analysis, fluorescent whole slide images were acquired at 20× using Leica's Aperio FL scanner. Images were then analyzed using a custom algorithm build in Definiens Tissue Studio Analysis software (formerly Definiens AG). For […]-KAP1 analysis, whole slide fluorescent images were acquired at 20× using ZEISS Axioscan 7 scanner. Images were analyzed using a custom algorithm in HALO software (Indica Labs)."}, "[3]": {"system": "patients with advanced solid tumors", "assay": "Phase 1 safety of berzosertib plus irinotecan: treatment-related adverse events (CTCAE v5.0), DLT, MTD/RP2D", "assay_type": "in vivo", "procedure": "Berzosertib was supplied under a Collaborative Research and Development Agreement among NCI, Vertex Pharmaceuticals, and EMD Serono. Irinotecan was obtained from commercial sources.\nTreatment cycles were 28 days long (Supporting Information S1: Figure S1).\nA history and physical examination were conducted at baseline and before each cycle. Complete blood counts and serum chemistries were performed at baseline and weekly during C1 and every 2 weeks thereafter. Toxicities were graded using NCI Common Terminology Criteria for Adverse Events (version 5.0) and defined as adverse events that were possibly, probably, or definitely related to treatment. Radiographic evaluation was performed at baseline and every 8 weeks for tumor response based on Response Evaluation Criteria in Solid Tumors (RECIST) version 1.1.\nDLs were evaluated using a modified Storer’s up and down design with the plan of enrolling up to 36 evaluable patients during dose escalation (Supporting Information S1: Figure S1).[8] Stage I of the Modified Storer’s up and down design is single patient dose escalation until a DLT is observed. Once a DLT is observed, patients are treated in cohorts of five in stage II of the design. The MTD was defined as the highest DL tested at which ≤20% patients experience dose limiting toxicity (DLT) during C1 of therapy."}, "clinical [4]": {"assay": "clinical", "procedure": "(§1) Berzosertib plasma protein binding was assessed in vitro using rapid equilibrium dialysis (RED) devices (Thermo Fisher Scientific, Waltham, Massachusetts).\n(§2) Plasma pharmacokinetic parameters were derived from the data by noncompartmental methods with WinNonlin (Certara). Statistical analyses for pharmacokinetic parameter values were performed using SPSS 27.0 for Windows (SPSS Inc, Chicago, Illinois)."}, "[5]": {"assay": "Berzosertib plasma protein binding in vitro, rapid equilibrium dialysis", "assay_type": "in vitro ADME", "details": "human plasma, 300 – 100,000 µg/L tested"}, "[6]": {"design": "method as in PMID 32568634", "details": "highest dose level 240 mg/m^2 once or twice weekly; cited from earlier work"}, "clinical [7]": {"assay": "clinical", "details": "human, in vivo", "procedure": "as §1, §2"}, "p-Chk1": {"system": "p-Chk1", "details": "reported value, no reference given; cited from earlier work"}, "[8]": {"details": "D15, irinotecan 180/150 mg/m^2 with berzosertib (N=41), geometric mean (SD)"}, "[9]": {"details": "D-14, irinotecan 180 mg/m^2 alone (N=55), geometric mean (SD)"}, "[10]": {"details": "N=39, with/without berzosertib, geometric mean (SD)"}, "[11]": {"details": "irinotecan 180 mg/m^2 (N=55), D-14 (alone), geometric mean (SD)"}}}
{"smiles": "CCc1c2c(nc3ccc(OC(=O)N4CCC(N5CCCCC5)CC4)cc13)-c1cc3c(c(=O)n1C2)COC(=O)[C@]3(O)CC", "note": "[irinotecan]", "values": [{"measurement": "induction of H2AX phosphorylation in PBMCs", "setting": "[1]; 4 hours 30 minutes, returned to baseline by 24 hours", "result": 10, "unit": "fold"}, {"measurement": "induction of ATM in PBMCs", "setting": "[1]; irinotecan alone (C1D-14)", "result": "no induction of ATM"}, {"measurement": "γH2AX and pNBS1 in tumor biopsy", "setting": "[2]", "result": "> 4 % nuclear area positive (NAP)"}, {"measurement": "MTD and RP2D, irinotecan dose", "setting": "[3]; with berzosertib 270 mg/m^2, iv every 2 weeks (DL4)", "result": 180, "unit": "mg/m^2"}, {"measurement": "AUC(0-inf)", "setting": "clinical [4]; human, in vivo, 180 mg/m2", "result": 14000, "unit": "ng·h/mL"}, {"measurement": "Cmax", "setting": "clinical [4]; human, in vivo, 180 mg/m2", "result": 2180, "unit": "ng/mL"}]}
{"smiles": "CCc1c2c(nc3ccc(O)cc13)-c1cc3c(c(=O)n1C2)COC(=O)[C@]3(O)CC", "note": "[SN38]", "values": [{"measurement": "SN38/ IRI AUC Ratio", "setting": "clinical [4]; [8]", "result": "0.0282 (1.70)"}, {"measurement": "SN38/ IRI AUC Ratio", "setting": "clinical [4]; [9]", "result": "0.0268 (1.56)"}, {"measurement": "SN38/ IRI AUC Ratio, D15/D-14", "setting": "clinical [4]; [10]", "result": "1.07 (1.48)"}, {"measurement": "90% CI of the AUC ratio (presence/absence of berzosertib)", "setting": "clinical [4]; bioequivalence approach", "result": "fell within the traditional boundaries of 80%–125%"}, {"measurement": "SN38 AUC ratio D15/D-14, L-90%CI", "setting": "clinical [4]; bioequivalence assessment, lower 90% confidence interval", "result": 93.6, "unit": "%"}, {"measurement": "SN38 AUC ratio D15/D-14, Average BE", "setting": "clinical [4]; bioequivalence assessment, presence/absence of berzosertib", "result": 106.6, "unit": "%"}, {"measurement": "SN38 AUC ratio D15/D-14, U-90%CI", "setting": "clinical [4]; bioequivalence assessment, upper 90% confidence interval", "result": 121.5, "unit": "%"}, {"measurement": "SN38 AUC0-inf", "setting": "clinical [4]; [11]", "result": "0.38 (1.8) mg/L•h"}, {"measurement": "SN38 Cmax", "setting": "clinical [4]; [11]", "result": "25.0 (1.78) µg/L"}, {"measurement": "SN38 t½", "setting": "clinical [4]; [11]", "result": "19.9 (1.3) h"}, {"measurement": "SN38 AUC Ratio D15/D-14", "setting": "clinical [4]; presence/absence of berzosertib, dose-normalized AUC, geometric mean (SD)", "result": "1.07 (1.7)"}]}
{"smiles": "CCc1c2c(nc3ccc(OC(=O)N4CCC(NCCCCC(=O)O)CC4)cc13)-c1cc3c(c(=O)n1C2)COC(=O)[C@]3(O)CC", "note": "[APC]", "values": [{"measurement": "APC/ IRI AUC Ratio", "setting": "clinical [4]; [8]", "result": "0.221 (1.96)"}, {"measurement": "APC/ IRI AUC Ratio", "setting": "clinical [4]; [9]", "result": "0.196 (1.80)"}, {"measurement": "APC/ IRI AUC Ratio, D15/D-14", "setting": "clinical [4]; [10]", "result": "1.09 (1.50)"}, {"measurement": "APC AUC0-inf", "setting": "clinical [4]; human, in vivo, 180 mg/m2", "result": "2.74 (1.92) mg/L•h"}, {"measurement": "APC Cmax", "setting": "clinical [4]; human, in vivo, 180 mg/m2", "result": "201 (1.81) µg/L"}, {"measurement": "APC t½", "setting": "clinical [4]; irinotecan 180 mg/m^2 (N=55), day -14 of cycle 1, geometric mean (SD)", "result": "12.1 (1.3) h"}]}
{"smiles": "CNCc1ccc(-c2cc(-c3nc(-c4ccc(S(=O)(=O)C(C)C)cc4)cnc3N)on2)cc1", "note": "[berzosertib]", "values": [{"measurement": "concentration from which the free fraction increased (plasma protein binding)", "setting": "[5]", "result": "approximately 30 μg/mL"}, {"measurement": "berzosertib exposure (AUC) versus cycle 1 toxicity grade", "setting": "[3]; human, in vivo", "result": "higher in patients with C1 higher any grade toxicity and higher hematologic grade toxicity"}, {"measurement": "MTD and RP2D, berzosertib dose", "setting": "[3]; with irinotecan 180 mg/m^2, iv every 2 weeks (DL4)", "result": 270, "unit": "mg/m^2"}, {"measurement": "dose-limiting toxicities, monotherapy", "setting": "[6]", "result": "no dose-limiting toxicities"}, {"measurement": "Cl", "setting": "clinical [7]", "result": "24.3 (1.30) L/h/m^2"}, {"measurement": "Cmax/Dose", "setting": "clinical [7]", "result": "4.90 (1.45) µg/L / mg/m^2"}, {"measurement": "Tmax", "setting": "clinical [7]", "result": 0.61, "unit": "h"}, {"measurement": "Vss", "setting": "clinical [7]", "result": "530 (1.30) L/m^2"}, {"measurement": "Vz", "setting": "clinical [7]", "result": "612 (1.31) L/m^2"}, {"measurement": "AUC(0-inf)", "setting": "clinical [7]; 60 mg/m2", "result": 2330, "unit": "ng·h/mL"}, {"measurement": "Cl", "setting": "clinical [7]; 60 mg/m2", "result": "25.7 (-) L/h/m^2"}, {"measurement": "Cmax", "setting": "clinical [7]; 60 mg/m2", "result": 343, "unit": "ng/mL"}, {"measurement": "Cmax/Dose", "setting": "clinical [7]; 60 mg/m2", "result": "5.72 (-) µg/L / mg/m^2"}, {"measurement": "Tmax", "setting": "clinical [7]; 60 mg/m2", "result": 0.45, "unit": "h"}, {"measurement": "Vss", "setting": "clinical [7]; 60 mg/m2", "result": "459 (-) L/m^2"}, {"measurement": "half-life", "setting": "clinical [7]; 60 mg/m2", "result": 14.4, "unit": "h"}, {"measurement": "AUC(0-inf)", "setting": "clinical [7]; 120 mg/m2", "result": 4190, "unit": "ng·h/mL"}, {"measurement": "Cl", "setting": "clinical [7]; 120 mg/m2", "result": "28.7 (1.40) L/h/m^2"}, {"measurement": "Cmax", "setting": "clinical [7]; 120 mg/m2", "result": 535, "unit": "ng/mL"}, {"measurement": "Tmax", "setting": "clinical [7]; 120 mg/m2", "result": 0.54, "unit": "h"}, {"measurement": "half-life", "setting": "clinical [7]; 120 mg/m2", "result": 14.1, "unit": "h"}, {"measurement": "AUC(0-inf)", "setting": "clinical [7]; 180 mg/m2", "result": 8550, "unit": "ng·h/mL"}, {"measurement": "Cl", "setting": "clinical [7]; 180 mg/m2", "result": "21.1 (1.20) L/h/m^2"}, {"measurement": "Cmax", "setting": "clinical [7]; 180 mg/m2", "result": 1060, "unit": "ng/mL"}, {"measurement": "Cmax/Dose", "setting": "clinical [7]; 180 mg/m2", "result": "5.92 (1.44) µg/L / mg/m^2"}, {"measurement": "Tmax", "setting": "clinical [7]; 180 mg/m2", "result": 0.66, "unit": "h"}, {"measurement": "Vss", "setting": "clinical [7]; 180 mg/m2", "result": "422 (1.37) L/m^2"}, {"measurement": "half-life", "setting": "clinical [7]; 180 mg/m2", "result": 16.1, "unit": "h"}, {"measurement": "AUC(0-inf)", "setting": "clinical [7]; 270 mg/m2", "result": 11000, "unit": "ng·h/mL"}, {"measurement": "Cl", "setting": "clinical [7]; 270 mg/m2", "result": "24.6 (1.30) L/h/m^2"}, {"measurement": "Cmax", "setting": "clinical [7]; 270 mg/m2", "result": 1260, "unit": "ng/mL"}, {"measurement": "Cmax/Dose", "setting": "clinical [7]; 270 mg/m2", "result": "4.67 (1.46) µg/L / mg/m^2"}, {"measurement": "Tmax", "setting": "clinical [7]; 270 mg/m2", "result": 0.61, "unit": "h"}, {"measurement": "Vss", "setting": "clinical [7]; 270 mg/m2", "result": "578 (1.24) L/m^2"}, {"measurement": "half-life", "setting": "clinical [7]; 270 mg/m2", "result": 18.8, "unit": "h"}, {"measurement": "half-life", "setting": "clinical [7]; iv", "result": "~17", "unit": "h"}, {"measurement": "total clearance", "setting": "clinical [7]; iv", "result": 24, "unit": "L/h/m^2"}, {"measurement": "volume of distribution", "setting": "clinical [7]; iv", "result": "approximately 530 L/m^2"}, {"measurement": "human equivalent p-Chk1 IC50", "setting": "p-Chk1", "result": "approximately 110 ng/mL"}]}
